Results taken from patent US12264134B2 (Merck Sharp & Dohme LLC, priority 2018, dated 2025).

Biological target: IDO1 (Homo sapiens, UniProt P14902)
Assay: IDO1 Cellular Assay in HeLa Cells Stimulated with IFNγ
Assay type: cell-based
Conditions: read-out: HeLa Cell Potency, IC50

IDO1, sequence (P14902 whole entry): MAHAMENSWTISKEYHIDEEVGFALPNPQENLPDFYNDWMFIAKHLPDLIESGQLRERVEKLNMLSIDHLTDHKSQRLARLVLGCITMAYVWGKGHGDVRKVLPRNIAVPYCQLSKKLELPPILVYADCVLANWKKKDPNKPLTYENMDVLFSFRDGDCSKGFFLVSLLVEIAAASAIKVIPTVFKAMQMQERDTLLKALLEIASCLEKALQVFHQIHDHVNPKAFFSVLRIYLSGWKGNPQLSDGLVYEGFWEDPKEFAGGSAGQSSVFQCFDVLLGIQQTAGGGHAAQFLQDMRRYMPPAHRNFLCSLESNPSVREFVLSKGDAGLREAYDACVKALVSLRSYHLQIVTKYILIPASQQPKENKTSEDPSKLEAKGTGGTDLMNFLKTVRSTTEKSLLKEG

| IC50 | SMILES |
| --- | --- |
| 0.0103 µM | Cc1cccc(N2CCN(C(=O)Cn3nc(C(=O)N4CCC5(CC4)COC(=O)N5)c4c3CCC4)CC2)c1C [Example 163, 8-(1-{2-[4-(2,3-dimethylphenyl)piperazin-1-yl]-2-oxoethyl}-1,4,5,6-tetrahydrocyclopenta[c]pyrazole-3-carbonyl)-3-oxa-1,8-diazaspiro[4.5] decan-2-one] |
| 0.0304 µM | Cc1cccc(N2CCN(C(=O)Cn3nc(C(=O)N4CCC(O)(C(N)=O)CC4)c4c3CCC4)CC2)c1C [Example 169, 1-(1-{2-[4-(2,3-dimethylphenyl)piperazin-1-yl]-2-oxoethyl}-1,4,5,6-tetrahydrocyclopenta[c]pyrazole-3-carbonyl)-4-hydroxypiperidine-4-carboxamide] |
| 0.476 µM | Cc1cccc(N2CCN(C(=O)Cn3nc(C(=O)N4CCC(C)(N)CC4)c4c3CCC4)CC2)c1C [Example 176, 2-[3-(4-amino-4-methylpiperidine-1-carbonyl)-5,6-dihydrocyclopenta[c]pyrazol-1(4H)-yl]-1-[4-(2,3-dimethylphenyl)piperazin-1-yl]ethan-1-one] |
| 0.405 µM | Cc1cccc(N2CCN(C(=O)Cn3nc(C(=O)N4CCC5(CCCN5)CC4)c4c3CCC4)CC2)c1C [Example 177, 2-[3-(1,8-diazaspiro[4.5]decane-8-carbonyl)-5,6-dihydrocyclopenta[c]pyrazol-1(4H)-yl]-1-[4-(2,3-dimethylphenyl)piperazin-1-yl]ethan-1-one] |
| 0.0164 µM | Cc1cccc(N2CCN(C(=O)Cn3nc(C(=O)N4CCC(F)(CN)CC4)c4c3CCC4)CC2)c1C [Example 178, 2-{3-[4-(aminomethyl)-4-fluoropiperidine-1-carbonyl]-5,6-dihydrocyclopenta[c]pyrazol-1(4H)-yl}-1-[4-(2,3-dimethylphenyl)piperazin-1-yl]ethan-1-one] |
| 0.0828 µM | Cc1cccc(N2CCN(C(=O)Cn3nc(C(=O)N4CCC(C)(CN)CC4)c4c3CCC4)CC2)c1C [Example 179, 2-{3-[4-(aminomethyl)-4-methylpiperidine-1-carbonyl]-5,6-dihydrocyclopenta[c]pyrazol-1(4H)-yl}-1-[4-(2,3-dimethylphenyl)piperazin-1-yl]ethan-1-one] |
| 0.00625 µM | Cc1cccc(N2CCN(C(=O)Cn3nc(C(=O)N4CCC5(CC4)COCC5O)c4c3CCC4)CC2)c1C (centres unmarked) [Example 182, 1-[4-(2,3-dimethylphenyl)piperazin-1-yl]-2-[3-(4-hydroxy-2-oxa-8-azaspiro[4.5]decane-8-carbonyl)-5,6-dihydrocyclopenta[c]pyrazol-1(4H)-yl]ethan-1-one] |
| 0.00322 µM | Cc1cccc(N2CCN(C(=O)Cn3nc(C(=O)N4CCC5(CCCC(=O)N5)CC4)c4c3CCC4)CC2)c1C [Example 183, 9-(1-{2-[4-(2,3-dimethylphenyl)piperazin-1-yl]-2-oxoethyl}-1,4,5,6-tetrahydrocyclopenta[c]pyrazole-3-carbonyl)-1,9-diazaspiro[5.5]undecan-2-one] |
| 0.0802 µM | Cc1cccc(N2CCN(C(=O)Cn3nc(C(=O)N4CCC5(CC4)CNC(=O)N5)c4c3CCC4)CC2)c1C [Example 184, 8-(1-{2-[4-(2,3-dimethylphenyl)piperazin-1-yl]-2-oxoethyl}-1,4,5,6-tetrahydrocyclopenta[c]pyrazole-3-carbonyl)-1,3,8-triazaspiro[4.5]decan-2-one] |
| 0.00162 µM | Cc1cccc(N2CCN(C(=O)Cn3nc(C(=O)N4CCC5(CC4)CNC(=O)CO5)c4c3CCC4)CC2)c1C [Example 190, 9-(1-{2-[4-(2,3-dimethylphenyl)piperazin-1-yl]-2-oxoethyl}-1,4,5,6-tetrahydrocyclopenta[c]pyrazole-3-carbonyll)-1-oxa-4,9-diazaspiro[5.5]undecan-3-one] |

The next lines start with the compound.

| SMILES | IC50 |
| --- | --- |
| Cc1cccc(N2CCN(C(=O)Cn3nc(C(=O)N4CC5CCC4CC5O)c4c3CCC4)CC2)c1C (centres unmarked) [Example 151, 1-[4-(2,3-dimethylphenyl)piperazin-1-yl]-2-[3-(5-hydroxy-2-azabicyclo[2.2.2]octane-2-carbonyl)-5,6-dihydrocyclopenta[c]pyrazol-1(4H)-yl]ethan-1-one] | 0.00463 µM |
| Cc1cccc(N2CCN(C(=O)Cn3nc(C(=O)N4CC5CCC4CC5O)c4c3CCC4)CC2)c1C (centres unmarked) [Example 152, 1-[4-(2,3-dimethylphenyl)piperazin-1-yl]-2-[3-(5-hydroxy-2-azabicyclo[2.2.2]octane-2-carbonyl)-5,6-dihydrocyclopenta[c]pyrazol-1(4H)-yl]ethan-1-one] | 0.0342 µM |
| Cc1cccc(N2CCN(C(=O)Cn3nc(C(=O)N4CC5CCC(F)(F)C5C4)c4c3CCC4)CC2)c1C (centres unmarked) [Example 153, 2-[3-(4,4-difluorohexahydrocyclopenta[c]pyrrole-2(1H)-carbonyl)-5,6-dihydrocyclopenta[c]pyrazol-1(4H)-yl]-1-[4-(2,3-dimethylphenyl)piperazin-1-yl]ethan-1-one] | 0.00319 µM |
| Cc1cccc(N2CCN(C(=O)Cn3nc(C(=O)N4CCC(CCO)C4)c4c3CCC4)CC2)c1C (centres unmarked) [Example 154, 1-[4-(2,3-dimethylphenyl)piperazin-1-yl]-2-{3-[3-(2-hydroxyethyl)pyrrolidine-1-carbonyl]-5,6-dihydrocyclopenta[c]pyrazol-1(4H)-yl}ethan-1-one] | 0.00299 µM |
| Cc1cccc(N2CCN(C(=O)Cn3nc(C(=O)N4CCOC(CO)C4)c4c3CCC4)CC2)c1C (centres unmarked) [Example 155, 1-[4-(2,3-dimethylphenyl)piperazin-1-yl]-2-{3-[2-(hydroxymethyl)morpholine-4-carbonyl]-5,6-dihydrocyclopenta[c]pyrazol-1(4H)-yl}ethan-1-one] | 0.0285 µM |
| Cc1cccc(N2CCN(C(=O)Cn3nc(C(=O)N4CCOC(CO)C4)c4c3CCC4)CC2)c1C (centres unmarked) [Example 156, 1-[4-(2,3-dimethylphenyl)piperazin-1-yl]-2-{3-[2-(hydroxymethyl)morpholine-4-carbonyl]-5,6-dihydrocyclopenta[c]pyrazol-1(4H)-yl}ethan-1-one] | 0.0293 µM |
| Cc1cccc(N2CCN(C(=O)Cn3nc(C(=O)N4CCN(C(C)C)CC4)c4c3CCC4)CC2)c1C [Example 159, 1-[4-(2,3-dimethylphenyl)piperazin-1-yl]-2-{3-[4-(propan-2-yl)piperazine-1-carbonyl]-5,6-dihydrocyclopenta[c]pyrazol-1(4H)-yl}ethan-1-one] | 0.0252 µM |
| Cc1cccc(N2CCN(C(=O)Cn3nc(C(=O)N4CCN(CCO)CC4)c4c3CCC4)CC2)c1C [Example 162, 1-[4-(2,3-dimethylphenyl)piperazin-1-yl]-2-{3-[4-(2-hydroxyethyl)piperazine-1-carbonyl]-5,6-dihydrocyclopenta[c]pyrazol-1(4H)-yl}ethan-1-one] | 0.0105 µM |
| Cc1cccc(N2CCN(C(=O)Cn3nc(C(=O)N4CCC(N5CCCC5)CC4)c4c3CCC4)CC2)c1C [Example 164] | 0.0689 µM |
| Cc1cccc(N2CCN(C(=O)Cn3nc(C(=O)N4CCN(C)[C@@H](C)C4)c4c3CCC4)CC2)c1C [Example 166, 1-[4-(2,3-dimethylphenyl)piperazin-1-yl]-2-{3-[(3S)-3,4-dimethylpiperazine-1-carbonyl]-5,6-dihydrocyclopenta[c]pyrazol-1(4H)-yl}ethan-1-one] | 0.00618 µM |
| Cc1cccc(N2CCN(C(=O)Cn3nc(C(=O)N4CCC(O)(CCC(F)(F)F)CC4)c4c3CCC4)CC2)c1C [Example 170, 1-[4-(2,3-dimethylphenyl)piperazin-1-yl]-2-{3-[4-hydroxy-4-(3,3,3-trifluoropropyl)piperidine-1-carbonyl]-5,6-dihydrocyclopenta[c]pyrazol-1(4H)-yl}ethan-1-one] | 0.00631 µM |
| Cc1cccc(N2CCN(C(=O)Cn3nc(C(=O)N4CCC5(C4)CC5(F)F)c4c3CCC4)CC2)c1C (centres unmarked) [Example 171, 2-[3-(1,1-difluoro-5-azaspiro[2.4]heptane-5-carbonyl)-5,6-dihydrocyclopenta[c]pyrazol-1(4H)-yl]-1-[4-(2,3-dimethylphenyl)piperazin-1-yl]ethan-1-one] | 0.00579 µM |
| Cc1cccc(N2CCN(C(=O)Cn3nc(C(=O)N4CCC5(CCNC5)CC4)c4c3CCC4)CC2)c1C [Example 175, 2-[3-(2,8-diazaspiro[4.5]decane-8-carbonyl)-5,6-dihydrocyclopenta[c]pyrazol-1(4H)-yl]-1-[4-(2,3-dimethylphenyl)piperazin-1-yl]ethan-1-one] | 0.498 µM |
| Cc1cccc(N2CCN(C(=O)Cn3nc(C(=O)N4CCC(CN)CC4)c4c3CCC4)CC2)c1C [Example 180, 2-{3-[4-(aminomethyl)piperidine-1-carbonyl]-5,6-dihydrocyclopenta[c]pyrazol-1(4H)-yl}-1-[4-(2,3-dimethylphenyl)piperazin-1-yl]ethan-1-one] | 0.0116 µM |
| CC(=O)NC1CCCN(C(=O)c2nn(CC(=O)N3CCN(c4cccc(C)c4C)CC3)c3c2CCC3)C1 (centres unmarked) [Example 185, N-[1-(1-{2-[4-(2,3-dimethylphenyl)piperazin-1-yl]-2-oxoethyl}-1,4,5,6-tetrahydrocyclopenta[c]pyrazole-3-carbonyl)piperidin-3-yl]acetamide] | 0.12 µM |
| Cc1cccc(N2CCN(C(=O)Cn3nc(C(=O)N4CCCC(N(C)C)C4)c4c3CCC4)CC2)c1C (centres unmarked) [Example 186, 2-{3-[3-(dimethylamino)piperidine-1-carbonyl]-5,6-dihydrocyclopenta[c]pyrazol-1(4H)-yl}-1-[4-(2,3-dimethylphenyl)piperazin-1-yl]ethan-1-one] | 0.0379 µM |
| Cc1cccc(N2CCN(C(=O)Cn3nc(C(=O)N4CCCC(N5CCCC5)C4)c4c3CCC4)CC2)c1C (centres unmarked) [Example 187, 1-[4-(2,3-dimethylphenyl)piperazin-1-yl]-2-{3-[3-(pyrrolidin-1-yl)piperidine-1-carbonyl]-5,6-dihydrocyclopenta[c]pyrazol-1(4H)-yl}ethan-1-one] | 0.0761 µM |
| Cc1cccc(N2CCN(C(=O)Cn3nc(C(=O)N4CCC(NC(N)=O)CC4)c4c3CCC4)CC2)c1C [Example 188, N-[1-(1-{2-[4-(2,3-dimethylphenyl)piperazin-1-yl]-2-oxoethyl}-1,4,5,6-tetrahydrocyclopenta[c]pyrazole-3-carbonyl)piperidin-4-yl]urea] | 0.00976 µM |
| Cc1cccc(N2CCN(C(=O)Cn3nc(C(=O)N4CCC(O)(C(F)(F)F)CC4)c4c3CCC4)CC2)c1C [Example 189, 1-[4-(2,3-dimethylphenyl)piperazin-1-yl]-2-{3-[4-hydroxy-4-(trifluoromethyl)piperidine-1-carbonyl]-5,6-dihydrocyclopenta[c]pyrazol-1(4H)-yl}ethan-1-one] | 0.00453 µM |
